The term EC50 denotes the midpoint of the concentration-response curve. High values mean a less potent agent, low ones a more potent agent.

The values that follow come from paper PMC2725291, “Genetic and Molecular Basis of Individual Differences in Human Umami Taste Perception” (PLoS ONE, 2009).

The assay relates to TAS1R1/TAS1R3 variants. In words: Ca2+ imaging (FlexStation II), comparison across receptor variants (AR, TR, AC, TC). The format is cell-based, human. The settings on record: MSG alone. An excerpt:
Intronless human TAS1Rs and Gαl6 expression constructs were generated in the pEF-DEST51 Gateway vector (Invitrogen) by genomic DNA-based methods. To subclone each gene into the vector, a Kozak cassette was introduced at the 5′ end before the start codon. Gαl6 chimeras were generated by PCR with mutagenic primers. The carboxyl-terminal tail of Gαl6, five-residue (EINLL) was replaced by its counterpart from Gαi3 (ECGLY; Gα16-i3), Gαgust (DCGLF; Gα16-gust), and Gα16-gust44 was generated as described. The integrity of all DNA constructs was confirmed by DNA sequencing. Point mutations in TAS1Rs were made using the same overlapping PCR strategy with mutagenic primers.
HEK293 cells were cultured at 37°C under a humidified atmosphere containing 5% CO2 in Dulbecco's modified Eagle's medium supplemented with 10% fetal bovine serum. To obtain reproducible Ca^2+ responses, cells were split every 2 days before cells become confluent. Cells were discarded after 2 months of passages and new cells were prepared from frozen-stock. For calcium imaging experiments, cells were seeded onto a 35 mm recording chamber or poly-D-lysine coated 96-well black-wall, clear-bottom recording plates. After 24 hrs at 37°C, confluent cells (60∼70%) were washed in OptiMEM medium supplemented with GlutaMAX-I (invitrogen) and plasmid DNAs were transiently cotransfected into HEK293 cells using Lipofectamine2000 regent (invitrogen) (2.0 µl per 1.0 µg DNA). […]
Student's t-test was used for detection of differences in the mean recognition thresholds between males and females. […] The mean values (the center±S.E. of gaussian curve on X-axis) in the distribution of recognition thresholds defined by TAS1R1/TAS1R3 haplotypes (TAS1R1-372A/TAS1R3-757R homozygotes, TAS1R1-372T/TAS1R3-757R homozygotes, homo- and heterozygotes containing TAS1R3-757C) were calculated using gauss fit function of Origin 5.0 (OriginLab Corp). For Ca^2+ imaging analysis, data were normalized to response to 10 µM ISO, and mean values (±S.E.) were calculated from 10∼18 independent analyses.

For `N[C@@H](CCC(=O)O)C(=O)[O-].[Na+]` [MSG, monosodium glutamate], the “more sensitive responses (EC50 comparison) of 372T/757R (TR) compared to the other variants (AR, AC and TC)” value is recorded as “about 1.5 fold”. Under “the other variants (AR, AC and TC)”, this compound displayed an EC50 of 27.6 to 32.2 mM.
